Legend:
[1] = system: MRC-5 cells; experiment: Alamar Blue cell viability assay, MRC-5 non-malignant myofibroblasts; type: cell-based; conditions: Homo sapiens, MRC5
Text: (§1) The MYCN amplified neuroblastoma cell line SK-N-BE(2)-C was kindly provided by Professor June Biedler (Memorial Sloan Kettering Cancer Centre, New York, NY, USA), and Kelly was obtained from European Collection of Cell Cultures. The two normal lung fibroblast cell lines (MRC-5 and WI-38) were purchased from ATCC. SK-N-BE(2)-C shMYCN#2 doxycycline-inducible cell and Kelly shMYCN#2 doxycycline-inducible cell were custom-made by GenScript (Piscataway, NJ, USA). SK-N-BE(2)-C, SK-N-BE(2)-C shMYCN#2, and SHEP MYCN3 doxycycline-inducible cells were maintained in Dulbecco’s modified Eagle’s medium (DMEM) (Invitrogen, Life Technologies, Waltham, MA, USA) with 10% foetal calf serum (FCS). Kelly and Kelly shMYCN#2 doxycycline-inducible cell were cultured in Roswell Park Memorial Institute (RPMI) 1640 (Invitrogen, Life Technologies) with 10% FCS. MRC-5 and WI-38 were cultured in Alpha-MEM media (Invitrogen, Life Technologies) with 10% FCS. All cells were not cultured for more than 2 months. All used cell lines were authenticated by Cell Bank Australia (Westmead, NSW, Australia) as being free from mycoplasma, and cultured at 37 °C and 5% CO2 in a humidifier incubator.
(§2) Cell viability was determined by the Alamar Blue assay (75 mg resazurin, 12.5 mg methylene blue, 164.5 mg potassium hexacyanoferrate (III), 211 mg potassium hexacyanoferrate (II) trihydrate in 500 mL of phosphate buffered saline). After 6 h incubation with Alamar Blue, the change of fluorescence was measured by Victor 3 multilabel Plate Reader (Perkin Elmer Australia, Melburne, Australia) at an excitation wavelength of 560 nm and an emission wavelength of 590 nm.
(§3) We have shown that the PA2G4 protein increased the half-life of the oncoprotein MYCN through direct binding, and competitive chemical inhibition of this bond by WS6 reduced tumorigenicity both in vitro and in vivo [11]. […] Here, we explored the structure–activity relationship (SAR) of WS6 analogue compounds with the aim to increase efficacy and reduce toxicity. […] The in vitro cytotoxicity of these 14 compounds were measured by cell viability assays using Alamar Blue in MYCN amplified human neuroblastoma (SK-N-BE(2)-C and Kelly) cell lines compared to non-malignant (WI-38, MRC-5) myofibroblast cell lines (Figure 1B,C and Supplementary Figure S1A).

[2] = system: Kelly cells; experiment: Alamar Blue cell viability assay, Kelly; type: cell-based; conditions: Homo sapiens, MYCN amplified neuroblastoma cell line
Text: as §1, §2, §3

[3] = system: neuroblastoma cells (Kelly, SK-N-BE(2)-C) compared to non-malignant myofibroblasts (WI-38, MRC-5); experiment: Therapeutic window, neuroblastoma cells versus non-malignant myofibroblasts; type: cell-based, human; conditions: non-malignant myofibroblast IC50 versus neuroblastoma cell IC50
Procedure: as §2, §3

[4] = system: TH-MYCN neuroblastoma mice; set-up: method as in PMID 31501192; conditions: cited from earlier work
[5] = system: WI-38 cells; experiment: Alamar Blue cell viability assay, WI-38 non-malignant myofibroblasts; type: cell-based; conditions: Homo sapiens, read-out: IC50 WI-36
Text: as §1, §2, §3

[6] = system: SK-N-BE(2)-C cells; experiment: Alamar Blue cell viability assay, SK-N-BE(2)-C; type: cell-based; conditions: Homo sapiens, MYCN amplified neuroblastoma cell line
Text: as §1, §2, §3

IC50 [6]: 0.75 µM
Compound: CN1CCN(Cc2ccc(NC(=O)Cc3ccc(Oc4cc(NC(=O)C5CC5)ncn4)cc3)cc2C(F)(F)F)CC1 [WS6, reference compound]
IC50 [1]: 1.4 µM
IC50 [2]: 0.65 µM
Therapeutic window (fold difference) [3]: 2.1 fold
tumorigenicity [4]: significantly decreased tumorigenicity
IC50 [5]: 1.5 µM

— paper PMC10046377, “Inhibitors of the Oncogenic PA2G4-MYCN Protein-Protein Interface” (Cancers, 2023)
